According to patent US12065443B2, “Compounds and pharmaceutical compositions thereof for the treatment of diseases” (priority 2017, dated 2024):

Tests used:
[1] = target: T1, SIK1 (Homo sapiens, UniProt P57059); assay: biochemical; conditions: 33P radioactive SIK kinase assay, AMARA peptide, 10 μM ATP; read-out: SIK1 IC50
T1 construct: purchased Carna Biosciences 02-131
Summary of the method: (§1)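 AMARA peptide phosphorylation by SIK1–3 is quantified through ^33P uptake from a labeled/unlabeled ATP blend. Staurosporine at 10 μM final defines full inhibition, 1% DMSO the uninhibited signal. Quench uses phosphoric acid; counting follows filter capture.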

[2] = target: T2, SIK2 (Homo sapiens, UniProt Q9H0K1); assay: biochemical; conditions: 33P radioactive SIK kinase assay, AMARA peptide, 10 μM ATP
T2 construct: purchased ThermoFisher Scientific PV4792
T2 sequence (Q9H0K1 whole entry): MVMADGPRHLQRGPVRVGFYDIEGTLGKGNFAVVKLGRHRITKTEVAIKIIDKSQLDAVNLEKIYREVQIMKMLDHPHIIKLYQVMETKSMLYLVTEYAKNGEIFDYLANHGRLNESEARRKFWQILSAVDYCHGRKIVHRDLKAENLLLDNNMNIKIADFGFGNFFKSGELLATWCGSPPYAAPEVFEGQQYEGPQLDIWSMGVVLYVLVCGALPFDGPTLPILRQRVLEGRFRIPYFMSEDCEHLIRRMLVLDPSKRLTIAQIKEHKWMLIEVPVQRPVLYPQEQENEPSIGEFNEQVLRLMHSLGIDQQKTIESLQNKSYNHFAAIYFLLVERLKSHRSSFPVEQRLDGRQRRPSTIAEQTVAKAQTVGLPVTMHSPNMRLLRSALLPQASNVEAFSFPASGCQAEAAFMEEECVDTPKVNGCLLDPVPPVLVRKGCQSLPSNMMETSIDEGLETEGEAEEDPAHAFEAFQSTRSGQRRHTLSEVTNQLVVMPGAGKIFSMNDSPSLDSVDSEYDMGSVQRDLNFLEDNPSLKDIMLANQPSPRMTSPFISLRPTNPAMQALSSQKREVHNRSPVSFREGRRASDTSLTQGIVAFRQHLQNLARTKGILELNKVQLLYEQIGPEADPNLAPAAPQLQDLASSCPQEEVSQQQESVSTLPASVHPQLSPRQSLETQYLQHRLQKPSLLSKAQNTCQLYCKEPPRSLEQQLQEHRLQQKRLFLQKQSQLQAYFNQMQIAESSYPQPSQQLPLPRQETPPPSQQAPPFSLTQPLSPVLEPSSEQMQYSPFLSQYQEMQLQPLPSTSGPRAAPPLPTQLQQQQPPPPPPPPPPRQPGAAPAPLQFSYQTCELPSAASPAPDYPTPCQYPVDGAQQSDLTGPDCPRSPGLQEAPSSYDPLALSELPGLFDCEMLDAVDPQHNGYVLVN
Summary of the method: as §1

[3] = target: T3, SIK3 (Homo sapiens, UniProt Q9Y2K2); assay: biochemical
T3 construct: purchased SignalChem S12-11G-100
T3 sequence (Q9Y2K2 whole entry): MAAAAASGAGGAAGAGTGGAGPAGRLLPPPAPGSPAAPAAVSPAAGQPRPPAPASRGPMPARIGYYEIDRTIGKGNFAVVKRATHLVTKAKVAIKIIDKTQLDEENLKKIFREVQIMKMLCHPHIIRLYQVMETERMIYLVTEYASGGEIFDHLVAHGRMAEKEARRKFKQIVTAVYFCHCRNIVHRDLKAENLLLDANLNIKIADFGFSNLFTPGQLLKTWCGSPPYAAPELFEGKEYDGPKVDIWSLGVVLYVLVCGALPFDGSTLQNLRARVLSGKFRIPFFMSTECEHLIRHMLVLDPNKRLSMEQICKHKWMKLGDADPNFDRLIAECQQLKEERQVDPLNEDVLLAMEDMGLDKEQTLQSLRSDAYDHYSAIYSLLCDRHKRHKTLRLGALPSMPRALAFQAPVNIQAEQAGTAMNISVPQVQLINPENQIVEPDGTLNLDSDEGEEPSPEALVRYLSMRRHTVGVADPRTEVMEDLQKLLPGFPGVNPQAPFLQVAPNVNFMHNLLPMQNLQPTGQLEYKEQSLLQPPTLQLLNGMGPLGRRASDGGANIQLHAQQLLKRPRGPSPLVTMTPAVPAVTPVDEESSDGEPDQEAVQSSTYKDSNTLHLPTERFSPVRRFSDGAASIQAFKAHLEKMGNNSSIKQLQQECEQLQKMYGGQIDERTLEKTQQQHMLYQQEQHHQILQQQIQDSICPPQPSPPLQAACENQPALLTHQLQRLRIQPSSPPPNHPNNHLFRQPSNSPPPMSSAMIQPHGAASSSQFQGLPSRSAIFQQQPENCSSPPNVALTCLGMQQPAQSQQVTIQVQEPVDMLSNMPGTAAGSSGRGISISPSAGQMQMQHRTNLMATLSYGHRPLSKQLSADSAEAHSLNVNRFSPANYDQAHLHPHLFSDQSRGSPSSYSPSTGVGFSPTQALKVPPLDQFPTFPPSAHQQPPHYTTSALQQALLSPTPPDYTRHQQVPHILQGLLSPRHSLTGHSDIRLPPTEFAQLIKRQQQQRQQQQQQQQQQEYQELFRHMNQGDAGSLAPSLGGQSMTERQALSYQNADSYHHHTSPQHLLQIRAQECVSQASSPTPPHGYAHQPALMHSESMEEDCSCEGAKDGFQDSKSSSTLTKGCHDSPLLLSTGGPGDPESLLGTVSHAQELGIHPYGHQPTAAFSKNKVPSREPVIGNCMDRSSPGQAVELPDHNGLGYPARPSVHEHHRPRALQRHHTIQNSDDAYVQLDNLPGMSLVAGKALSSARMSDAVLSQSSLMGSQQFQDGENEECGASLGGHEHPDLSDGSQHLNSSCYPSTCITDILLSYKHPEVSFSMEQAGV
Summary of the method: as §1

[4] = test system: LPS-induced TNFα secretion in monocyte-derived macrophages (MdM); assay: MdM assay: LPS-triggered TNFα (ELISA); type: cell-based, human; conditions: Homo sapiens, Macrophage, LPS-triggered TNFα inhibition
Method: This assay evaluates illustrative compounds of the invention for their inhibition of LPS-induced TNFα and LPS triggered IL-10 secretion in monocyte-derived macrophages.
PBMCs are isolated from human blood samples (buffycoats). The buffy coat is aseptically transferred into a 50 mL Falcon tube, and diluted 1/2 in PBS. Falcon tubes are filled with 20 mL Lymphoprep™, on top of which 25 mL of the buffy coat is carefully added, tubes are centrifuged for 35 min at 400 g in temperature controlled centrifuge, without brake, at 25° C. PBMCs are aspirated from the white interface layer between sample and Lymphoprep™. PBMCs are washed five times in PBS.
PBMCs are centrifuged at 300×g for 10 min and resuspended at a density of 1.0E07 cells/80 μL Miltenyi buffer (PBS, pH 7.4, 1% FBS, 2 mM EDTA).
Starting from this point of the protocol all steps are performed on ice. 20 μL of CD14+ micro-beads are added per 1.0E07 cells, the tube is mixed and incubated for 15 min in the fridge at 4° C. Cell suspension volume is adjusted to total volume of 100 mL using Miltenyi buffer, mixed gently and subsequently centrifuged for 10 min at 300× g. Supernantant is discarded and cell pellet is resuspended in 12 mL of Miltenyi buffer.
Four LS columns are placed in the MACS Separator (magnet) from Miltenyi Biotec, and are prewet by rinsing with 3 mL of MACS buffer per column. Three mL of cell suspension is added onto the column (max 1*10^8 of labelled cells/column), and columns are subsequently washed 3 times with 3 mL of Miltenyi buffer.
The columns are removed from the magnets, and 5 mL of Miltenyi buffer are added to the column to flush out the CD14+ fraction by pushing the plunger into the column. The flushed fractions are collected in a fresh 50 mL Falcon and volume is adjusted to 30 mL using Miltenyi buffer, cells are centrifuged for 10 min at 300× g. The obtained cell pellet is resuspended in 10 mL RPMI w/o FBS, and cell density is determined using a hematologic analyser (Sysmex XS-500i).
On day 10, MdMs are triggered and compound is added.
A compound dilution plate is made in 100% DMSO by 3-fold dilution of 10 mM stock solution. An intermediate dilution plate (10× final concentration) is made by diluting the compound dilution plate 50-fold in RPMI medium.
Medium is carefully removed from cell plates using multichannel pipette, and replaced by 80 μL fresh medium. 10 μL of the 10× final concentration compound is added to the cells and incubated for 1 hour at 37° C. before addition of trigger. No trigger conditions/trigger conditions are spiked with equal final DMSO concentrations of 0.2% DMSO. 10 μL of 10×LPS (final conc. 200 ng/mL) solution are added to all wells except for the ‘no trigger wells’ where 10 μL medium is added. Supernatant is collected after 2 h (IL-10 determination) and after 20 h (TNFα determination) of LPS triggering.
The plate is then washed once with PBST (PBS+0.05% Tween20) and once with PBS followed by the addition of 100 μL of blocking buffer (1% Bovine Serum Albumin (BSA)-5% Sucrose) and plates are sealed and incubated for at least 4 h at RT. After washing the plate once with PBST and once with PBS, 40 μL of standard or sample are added (TNFα standard curve is prepared using a 1/2 serial dilution starting from 16000 pg/mL; dilutions are made in dilution buffer (PBS+1% BSA)). Plates are washed twice with PBST, and once with PBS, after which 35 μL of the detection antibody is added (final concentration 0.25 μg/mL diluted in dilution buffer) and plates are incubated for at least 2 h at RT. Plates are washed twice with PBST, and once with PBS, where after 35 μL of Strep-HRP conjugate (0.5 μg/mL final concentration diluted in dilution buffer) is added. Plates are incubated in the dark, at RT for at least 45 min but no longer than 1 hour. Plates are washed twice with PBST, and once with PBS.

T1 sequence (P57059 whole entry): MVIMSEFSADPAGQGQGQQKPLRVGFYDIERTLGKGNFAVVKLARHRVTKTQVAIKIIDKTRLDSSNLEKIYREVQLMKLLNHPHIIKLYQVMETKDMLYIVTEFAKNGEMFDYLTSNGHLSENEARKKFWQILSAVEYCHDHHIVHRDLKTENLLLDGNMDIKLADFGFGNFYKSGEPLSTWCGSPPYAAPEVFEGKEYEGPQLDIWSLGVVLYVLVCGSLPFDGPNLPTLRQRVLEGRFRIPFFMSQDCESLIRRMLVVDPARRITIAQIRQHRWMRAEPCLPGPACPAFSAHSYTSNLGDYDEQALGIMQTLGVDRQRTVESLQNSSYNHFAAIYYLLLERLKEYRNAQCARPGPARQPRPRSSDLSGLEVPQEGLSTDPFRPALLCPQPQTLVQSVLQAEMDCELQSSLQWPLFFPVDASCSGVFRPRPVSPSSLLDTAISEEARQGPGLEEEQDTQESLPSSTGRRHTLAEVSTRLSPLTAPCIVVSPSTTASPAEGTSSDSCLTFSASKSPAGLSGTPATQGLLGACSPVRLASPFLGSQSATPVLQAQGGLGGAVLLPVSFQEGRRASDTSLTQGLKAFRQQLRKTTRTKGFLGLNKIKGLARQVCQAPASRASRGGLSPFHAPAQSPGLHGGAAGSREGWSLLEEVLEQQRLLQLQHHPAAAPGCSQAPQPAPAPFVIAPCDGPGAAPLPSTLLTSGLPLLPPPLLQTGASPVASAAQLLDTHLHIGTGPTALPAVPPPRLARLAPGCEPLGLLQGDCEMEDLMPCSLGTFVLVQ

SMILES: COc1cc(-n2cnc3cc(-c4cnn(C)c4)ccc32)cc(OC)c1C(=O)NC1CCCC[C@H]1N (stereo in doubt) [compound 139, N-[(1R,2R)-2-aminocyclohexyl]-2,6-dimethoxy-4-[5-(1-methylpyrazol-4-yl)benzimidazol-1-yl]benzamide]
- IC50 [1]: 0.01 to 10 nM
- IC50 [2]: 0.01 to 10 nM
- IC50 [3]: 0.01 to 10 nM
- EC50 [4]: 1000 to 5000 nM

SMILES: COc1cc(-c2cnn3cc(-c4cnn(C)c4)cnc23)cc(OC)c1C(=O)NCC(F)(F)F [Cpd 52, 2,6-dimethoxy-4-[6-(1-methylpyrazol-4-yl)pyrazolo[1,5-a]pyrimidin-3-yl]-N-(2,2,2-trifluoroethyl)benzamide]
- IC50 [1]: 10 to 100 nM
- IC50 [2]: 0.01 to 10 nM
- IC50 [3]: 10 to 100 nM
- EC50 [4]: 100 to 1000 nM

SMILES: COc1cc(-n2cnc3cc(-c4cnn(CC#N)c4)ccc32)cc(OC(F)F)c1C(=O)NC1CC1 [Cpd 55, 4-[5-[1-(cyanomethyl)pyrazol-4-yl]benzimidazol-1-yl]-N-cyclopropyl-2-(difluoromethoxy)-6-methoxy-benzamide]
- IC50 [1]: 0.01 to 10 nM
- IC50 [2]: 0.01 to 10 nM
- IC50 [3]: 0.01 to 10 nM
- EC50 [4]: 0.1 to 100 nM

SMILES: COc1cc(-n2cnc3cc(-c4noc(C)n4)ccc32)cc(OC)c1C(=O)NCC(F)(F)F [Cpd 126, 2,6-dimethoxy-4-[5-(5-methyl-1,2,4-oxadiazol-3-yl)benzimidazol-1-yl]-N-(2,2,2-trifluoroethyl)benzamide]
- IC50 [1]: > 500 nM
- IC50 [2]: > 500 nM
- IC50 [3]: > 500 nM
- EC50 [4]: 1000 to 5000 nM

SMILES: COc1cc(-n2cnc3cc(-c4nnc(C)[nH]4)ccc32)cc(OC)c1C(=O)NCC(F)(F)F [Cpd 127, 2,6-dimethoxy-4-[5-(5-methyl-4H-1,2,4-triazol-3-yl)benzimidazol-1-yl]-N-(2,2,2-trifluoroethyl)benzamide]
- IC50 [1]: > 500 nM
- IC50 [2]: 100 to 500 nM
- IC50 [3]: 100 to 500 nM
- EC50 [4]: > 5000 nM

SMILES: COc1cc(-n2cnc3cc(-c4cn(C)cn4)ccc32)cc(OC)c1C(=O)NCC(F)(F)F [Cpd 137, 2,6-dimethoxy-4-[5-(1-methylimidazol-4-yl)benzimidazol-1-yl]-N-(2.2,2-trifluoroethyl)benzamide]
- IC50 [1]: 10 to 100 nM
- IC50 [2]: 0.01 to 10 nM
- IC50 [3]: 10 to 100 nM
- EC50 [4]: 100 to 1000 nM

SMILES: COc1cc(-n2cnc3cc(-n4cnc(C)c4)ccc32)cc(OC)c1C(=O)NCC(F)(F)F [Cpd 155, 2.6-dimethoxy-4-[5-(4-methylimidazol-1-yl)benzimidazol-1-yl]-N-(2,2,2-trifluoroethyl)benzamide]
- IC50 [1]: 100 to 500 nM
- IC50 [2]: 10 to 100 nM
- IC50 [3]: 10 to 100 nM
- EC50 [4]: 1000 to 5000 nM

SMILES: COc1cc(-c2cnc3cc(-c4cnn(CC(=O)OC(C)(C)C)c4)ccn23)cc(OC)c1C(=O)NCC(F)(F)F [Cpd 229, tert-butyl 2-[4-[3-[3,5-dimethoxy-4-(2,2,2-trifluoroethyl-carbamoyl)phenyl]imidazo[1,2-a]pyridin-7-yl]pyrazol-1-yl]acetate]
- IC50 [1]: 0.01 to 10 nM
- IC50 [2]: 0.01 to 10 nM
- IC50 [3]: 0.01 to 10 nM
- EC50 [4]: 100 to 1000 nM

SMILES: COc1cc(-c2cnc3cc(-c4cnn(CC(=O)OC(C)C)c4)ccn23)cc(OC)c1C(=O)NCC(F)(F)F [Cpd 231, isopropyl 2-[4-[3-[3,5-dimethoxy-4-(2,2,2-trifluoroethyl-carbamoyl)phenyl]imidazo[1,2-a]pyridin-7-yl]pyrazol-1-yl]acetate]
- IC50 [1]: 0.01 to 10 nM
- IC50 [2]: 0.01 to 10 nM
- IC50 [3]: 0.01 to 10 nM
- EC50 [4]: 0.1 to 100 nM

SMILES: COc1cc(-c2cnc3cc(-c4cnn(C)c4)ccn23)cc(O)c1C(=O)NCC(F)(F)F [Cpd 233, 2-hydroxy-6-methoxy-4-[7-(1-methylpyrazol-4-yl)imidazo[1,2-a]pvridin-3-yl]-N-(2,2,2-trifluoroethyl)benzamide]
- IC50 [1]: 10 to 100 nM
- IC50 [2]: 0.01 to 10 nM
- IC50 [3]: 0.01 to 10 nM
- EC50 [4]: 0.1 to 100 nM

SMILES: COc1cc(-c2cnc3cc(-c4cnn(CC(=O)OCCF)c4)ccn23)cc(OC)c1C(=O)NCC(F)(F)F [Cpd 235, 2-fluoroethyl 2-[4-[3-[3,5-dimethoxy-4-(2,2,2-trifluoroethyl-carbamoyl)phenyl]imidazo[1,2-a]pyridin-7-yl]pyrazol-1-yl]acetate]
- IC50 [1]: 0.01 to 10 nM
- IC50 [2]: 0.01 to 10 nM
- IC50 [3]: 0.01 to 10 nM
- EC50 [4]: 0.1 to 100 nM

SMILES: COC(=O)Cn1cc(-c2ccn3c(-c4cc(OC)c(C(=O)NCC(F)(F)F)c(OC)c4)cnc3c2)cn1 [Cpd 236, methyl 2-[4-[3-[3,5-dimethoxy-4-(2,2,2-trifluoroethyl-carbamoyl)phenyl]imidazo[1,2-a]pyridin-7-yl]pyrazol-1-yl]acetate]
- IC50 [1]: 0.01 to 10 nM
- IC50 [2]: 0.01 to 10 nM
- IC50 [3]: 0.01 to 10 nM
- EC50 [4]: 0.1 to 100 nM

SMILES: COC(=O)C1CN(C(=O)c2c(OC)cc(-c3cnc4cc(-c5cnn(C)c5)ccn34)cc2OC)C1 [compound 226, methyl 1-[2,6-dimethoxy-4-[7-(1-methylpyrazol-4-yl)imidazo[1,2-a]pyridin-3-yl]benzoyl)azetidine-3-carboxylate]
- IC50 [1]: 10 to 100 nM
- IC50 [2]: 10 to 100 nM
- IC50 [3]: 10 to 100 nM

SMILES: COc1cncc(-c2ccn3c(-c4cc(OC)c(C(=O)NCC(F)(F)F)c(OC)c4)cnc3c2)c1 [compound 245, 2,6-dimethoxy-4-[7-(5-methoxy-3-pyridyl)imidazo[1,2-a]pyridin-3-yl]-N-(2,2,2-trifluoroethyl)benzamide]
- IC50 [1]: 10 to 100 nM
- IC50 [2]: 10 to 100 nM
- IC50 [3]: 0.01 to 10 nM

SMILES: COc1cc(-c2cnc3cc(-c4cnc(N)nc4)ccn23)cc(OC)c1C(=O)NCC(F)(F)F [compound 246, 4-[7-(2-aminopyrimidin-5-yl)imidazo[1,2-a]pyridin-3-yl]-2,6-dimethoxy-N-(2,2,2-trifluoroethyl)benzamide]
- IC50 [1]: 10 to 100 nM
- IC50 [2]: 10 to 100 nM
- IC50 [3]: 0.01 to 10 nM

SMILES: COc1cc(-c2cnc3cc(-c4ccnnc4)ccn23)cc(OC)c1C(=O)NCC(F)(F)F [compound 247, 2,6-dimethoxy-4-(7-pyridazin-4-ylimidazo[1,2-a]pyridin-3-yl)-N-(2,2,2-trifluoroethyl)benzamide]
- IC50 [1]: 10 to 100 nM
- IC50 [2]: 10 to 100 nM
- IC50 [3]: 0.01 to 10 nM

SMILES: COc1cc(-c2cnc3cc(-c4cn(C)nc4C(F)(F)F)ccn23)cc(OC)c1C(=O)NCC(F)(F)F [compound 249, 2,6-dimethoxy-4-[7-[1-methyl-3-(trifluoromethyl)pyrazol-4-yl]imidazo[1,2-a]pyridin-3-yl]-N-(2,2,2-trifluoroethyl)benzamide]
- IC50 [1]: 100 to 500 nM
- IC50 [2]: 10 to 100 nM
- IC50 [3]: 10 to 100 nM

SMILES: COc1cc(-c2cnc3cc(-c4cccnc4OC)ccn23)cc(OC)c1C(=O)NCC(F)(F)F [compound 250, 2,6-dimethoxy-4-[7-(2-methoxy-3-pyridyl)imidazo[1,2-a]pyridin-3-yl]-N-(2,2,2-trifluoroethyl)benzamide]
- IC50 [1]: 100 to 500 nM
- IC50 [2]: 10 to 100 nM
- IC50 [3]: 10 to 100 nM

SMILES: COc1cc(-c2cnc3cc(-c4cncnc4C(C)C)ccn23)cc(OC)c1C(=O)NCC(F)(F)F [compound 253, 4-[7-(4-isopropylpyrimidin-5-yl)imidazo[1,2-a]pyridin-3-yl]-2,6-dimethoxy-N-(2,2,2-trifluoroethyl)benzamide]
- IC50 [1]: > 500 nM
- IC50 [2]: > 500 nM
- IC50 [3]: 100 to 500 nM
